Like-named read-outs stand apart in the source and are kept apart here.
Tests used:
HDAC8 = assay: Western blotting, HDAC8 expression; type: cell-based, human; conditions: HCT116 cells, 24 h, compared to normal control
Method: (§1) After various treatments for 24 h, cells were lysed, and protein quantification of the lysates was estimated using the BCA™ kit (Thermo Fisher Scientific Inc., Waltham, MA, USA). Proteins samples (30 µg) were resolved on a 10% SDS-PAGE and transferred onto a PVDF membrane and blocked with 5% nonfat milk in TBST (tris-buffered saline with Tween-20) buffer for 1 h followed by washing in TBST buffer. The membrane was then probed with primary antibodies (GAPDH, HDAC8, p21^Waf1/Cip1, and acetyl-histone H3[Ac-Lys^9]) and incubated overnight at 4°C. The membrane was washed with TBST buffer and incubated with horseradish peroxidase-conjugated secondary antibody for 1 h at room temperature. Signal was captured using SuperSignal™ West Pico Plus chemiluminescent substrate (Thermo Fischer Scientific Inc., Waltham, MA, USA) on gel documentation system (G : BOX Chemi XRQ, Syngene).

[1] = system: HDAC enzyme in HCT116 cells; assay: Whole cell HDAC inhibition assay; type: cell-based; conditions: Homo sapiens, HCT-116, HCT116, 18 h treatment, mean ± SEM of three experiments
Method: Confluent HCT116 cells were harvested and seeded in 96 well sterile black well plates at a density of 2000 cells per well and incubated overnight. Furthermore, the cells were treated with different concentrations of test compounds for a period of 18 h followed by the addition of […] BOC-Ac-Lys-AMC substrate and incubated for 1 h. […] The reaction was then allowed to proceed for 15 min at 37°C. Finally, the fluorescence intensity was measured at 360 nm excitation and 460 nm emission using a fluorescence microplate reader (FLx800, BioTek Instruments Inc., Winooski, VT, USA).

[2] = biological target: T1, recombinant human HDAC6 enzyme (Homo sapiens, UniProt Q9UBN7); assay: HDAC6 enzyme inhibition assay; type: biochemical; conditions: mean ± SEM of three experiments
T1 construct: purchased Enzo Life Sciences, Inc. USA
T1 sequence (Q9UBN7 1-1215): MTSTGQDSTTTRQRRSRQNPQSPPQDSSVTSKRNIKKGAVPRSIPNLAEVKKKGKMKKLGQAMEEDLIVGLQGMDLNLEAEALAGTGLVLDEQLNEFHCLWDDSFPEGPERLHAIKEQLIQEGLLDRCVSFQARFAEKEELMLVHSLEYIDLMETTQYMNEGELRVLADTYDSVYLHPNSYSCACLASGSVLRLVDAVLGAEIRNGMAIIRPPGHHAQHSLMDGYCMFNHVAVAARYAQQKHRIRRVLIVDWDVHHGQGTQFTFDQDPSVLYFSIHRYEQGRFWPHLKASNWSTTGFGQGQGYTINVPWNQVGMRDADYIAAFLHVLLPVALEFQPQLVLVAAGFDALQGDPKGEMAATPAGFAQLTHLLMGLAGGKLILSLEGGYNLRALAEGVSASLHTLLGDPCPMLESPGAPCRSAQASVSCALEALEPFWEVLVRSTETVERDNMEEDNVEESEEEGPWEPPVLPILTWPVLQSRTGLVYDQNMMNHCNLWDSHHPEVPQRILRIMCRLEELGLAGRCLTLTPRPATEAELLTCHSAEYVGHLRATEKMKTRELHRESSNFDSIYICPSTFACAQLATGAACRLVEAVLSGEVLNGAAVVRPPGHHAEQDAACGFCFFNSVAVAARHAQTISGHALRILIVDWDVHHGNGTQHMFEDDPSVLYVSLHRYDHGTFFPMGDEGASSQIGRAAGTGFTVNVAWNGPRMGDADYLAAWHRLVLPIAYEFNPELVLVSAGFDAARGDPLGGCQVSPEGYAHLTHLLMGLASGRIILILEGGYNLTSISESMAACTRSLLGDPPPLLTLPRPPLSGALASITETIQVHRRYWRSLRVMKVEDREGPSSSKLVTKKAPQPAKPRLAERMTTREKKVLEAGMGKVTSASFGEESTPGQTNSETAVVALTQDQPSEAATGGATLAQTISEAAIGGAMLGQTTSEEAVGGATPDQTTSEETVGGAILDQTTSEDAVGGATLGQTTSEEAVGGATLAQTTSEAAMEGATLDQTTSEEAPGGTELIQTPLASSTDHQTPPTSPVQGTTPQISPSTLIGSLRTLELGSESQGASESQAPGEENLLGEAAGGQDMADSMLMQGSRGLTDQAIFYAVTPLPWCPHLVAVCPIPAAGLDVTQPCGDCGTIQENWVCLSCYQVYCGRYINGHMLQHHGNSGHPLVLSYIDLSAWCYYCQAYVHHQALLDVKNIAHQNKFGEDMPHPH
Method: (§2) The HDAC1 and 6 assays were carried out with few modifications from the previously described method. In brief, 10 µl of different concentration of test compounds was added to 40 µl of reaction mixture containing HDAC assay buffer, HDAC substrate, and recombinant human HDAC1 and 6 enzymes. The reactions were incubated for 30 min at 37°C. Then, 50 µl of trypsin stop solution was added in each well, and the plate was incubated at room temperature for an additional 20 min. Fluorescence intensity was measured at an excitation of 360 nm and an emission of 460 nm using a fluorescence microplate reader (FLx800, BioTek Instruments Inc. Winooski, VT, USA).

HCT116 cells = assay: MTT cytotoxicity assay, HCT116; type: cell-based, human; conditions: for cytotoxicity in HCT116 relative to inhibitory concentration in normal (Vero) cell line: HCT116 vs Vero; for IC50: Homo sapiens, HCT-116, 48 h, mean ± SEM of three experiments
Method: Human colorectal carcinoma cell line (HCT116) and African green monkey kidney epithelial cells (VERO) were obtained from National Centre for Cell Science, Pune, MH, India. For their maintenance, the cells were grown in Dulbecco's Modified Eagle's Medium (DMEM) which was supplemented with 10% fetal bovine serum (FBS) and 1 × penicillin/streptomycin at 37°C in CO2 incubator (NU-5501E/G, NuAire Inc., Plymouth, MN, USA) in a humidified atmosphere of 5% CO2 and 95% air.
Cytotoxicity for the synthesized analogues was determined using MTT assay. In brief, HCT116 and VERO cells were harvested from the tissue culture flask and seeded in sterile 96 well plates at a density of 5000 cells per well. After overnight adherence, different concentrations of test compounds were added and incubated for 48 h. Next, 50 µl of the MTT reagent (HiMedia Laboratories, Mumbai, India) (2 mg/ml in the sterile phosphate buffer saline (PBS)) was added into each well and incubated for 3 h. The formazan crystals formed were solubilized using 100% dimethyl sulfoxide (DMSO), and the optical density was measured at 540 nm using the microplate reader (ELx800, BioTek Instruments Inc., Winooski, VT, USA).

p21^Waf1/Cip1 = assay: Western blotting, p21Waf1/Cip1 expression; type: cell-based, human; conditions: HCT116 cells, 24 h, compared to normal control
Method: as §1

[3] = biological target: T2, recombinant human HDAC1 enzyme (Homo sapiens, UniProt Q13547); assay: HDAC1 enzyme inhibition assay; type: biochemical
T2 construct: purchased Enzo Life Sciences, Inc. USA
T2 sequence (Q13547 whole entry): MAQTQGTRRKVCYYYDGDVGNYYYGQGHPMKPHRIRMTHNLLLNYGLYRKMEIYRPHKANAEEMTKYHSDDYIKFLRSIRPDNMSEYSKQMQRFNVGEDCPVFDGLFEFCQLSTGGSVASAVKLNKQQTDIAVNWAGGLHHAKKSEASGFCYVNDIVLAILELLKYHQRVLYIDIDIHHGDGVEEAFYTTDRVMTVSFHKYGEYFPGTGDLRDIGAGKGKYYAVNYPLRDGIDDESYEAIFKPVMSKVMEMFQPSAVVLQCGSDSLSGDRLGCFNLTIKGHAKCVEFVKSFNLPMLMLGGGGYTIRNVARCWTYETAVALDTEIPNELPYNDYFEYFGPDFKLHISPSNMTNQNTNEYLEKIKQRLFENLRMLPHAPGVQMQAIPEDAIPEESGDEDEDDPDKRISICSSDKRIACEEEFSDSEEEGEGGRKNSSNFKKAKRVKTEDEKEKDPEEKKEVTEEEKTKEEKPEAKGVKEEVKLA
Method: as §2

[4] = mean ± SEM of three experiments, read-out: HDAC1 IC50

Structure (SMILES)	HDAC8 expression (HDAC8)	IC50 [1] [µM]	IC50 [2] [µM]	cytotoxicity in HCT116 relative to inhibitory concentration in normal (Vero) cell line (HCT116 cells)	IC50 (HCT116 cells) [µM]	expression of p21^Waf1/Cip1 (p21^Waf1/Cip1)	IC50 [3, 4] [µM]	IC50 ([3]; HDAC1 IC50, mean ± SEM of three experiments) [µM]
Cc1ccc(-c2oc3cc(C)ccc3c(=O)c2O)cc1 [QMJ-5, 3-Hydroxy-7-methyl-2-(4-methylphenyl)-4H-1-benzopyran-4-one]	significant reduction	70.2 ± 4.3	163 ± 7.05	two-fold lower concentration	27.4 ± 1.8	increased	47.7 ± 6.3	–
O=c1c(O)c(-c2ccc(O)c(O)c2)oc2cc(O)cc(O)c12 [Quercetin, quercetin, reference compound]	significant reduction	168 ± 6.9	43.4 ± 2.17	–	108 ± 1.2	–	–	26.7 ± 3.77
Cc1ccc(-c2oc3ccccc3c(=O)c2O)cc1 [QMJ-2, 3-Hydroxy-2-(4-methylphenyl)-4H-1-benzopyran-4-one]	–	182 ± 22	165 ± 11.1	two-fold lower concentration	68 ± 2.3	increased	34.1 ± 3.83	–

Source: article PMC6327263, “Evaluation of Novel 3-Hydroxyflavone Analogues as HDAC Inhibitors against Colorectal Cancer” (Advances in Pharmacological Sciences, 2018)
